Assay results: US20170369470A1, “Cyclic Compounds and Uses Thereof” (Karyopharm Therapeutics Inc., priority 2014, published 2017)

What was measured:
Format in all cases: cell-based
Z138 cells = assay: MTT cell proliferation assay, Z138 cells; settings: Homo sapiens, Z-138; Z138 cells (mantle cell lymphoma line); incubation approximately 64-72 hours
Experimental: (§1) The MTT cell proliferation assay was used to study the cytotoxic properties of the compounds. The assay was performed according to the method described by Roche Molecular Biochemicals, with minor modifications. The assay is based on the cleavage of the tetrazolium salt, MTT, in the presence of an electron-coupling reagent. The water-insoluble formazan salt produced must be solubilized in an additional step. Cells grown in a 96-well tissue culture plate were incubated with the MTT solution for approximately 4 hours. After this incubation period, a water-insoluble formazan dye formed. After solubilization, the formazan dye was quantitated using a scanning multi-well spectrophotometer (ELISA reader). […] The cells were seeded at 5,000-10,000 cells in each well of 96-well plate in 100 μL of fresh culture medium and were allowed to attach overnight. The stock solutions of the compounds were diluted in 100 μL cell culture medium to obtain eight concentrations of each test compound, ranging from 1 nM to 30 μM. […] All optical densities were measured at 490 nm using a Vmax Kinetic Microplate Reader (Molecular Devices). In most cases, the assay was performed in duplicate and the results were presented as a mean percent inhibition to the negative control±SE. The following formula was used to calculate the percent of inhibition: Inhibition (%)=(1−(ODo/OD))×100.
(§2) The compounds were tested against MS751, Z138 and 3T3 cells. The MS751 cell line is derived from a metastasis to lymph node of human cervix from a patient diagnosed with squameous cell carcinoma of the cervix. The Z138 cell line is a mature B-cell acute lymphoblastic leukemia cell line derived from a patient with chronic lumphocytic leukemia. 3T3 cells are standard fibroblast cells; they were originally isolated from Swiss mouse embryo tissue.

MS751 cells = assay: MTT cell proliferation assay, MS751 cells; settings: MS751 cells (human cervix squamous cell carcinoma metastasis); incubation approximately 64-72 hours; read-out: MTT Assay IC50 MS 751
Experimental: as §1, §2

3T3 cells = assay: MTT cell proliferation assay, 3T3 cells; settings: NIH3T3; 3T3 fibroblast cells (Swiss mouse embryo); incubation approximately 64-72 hours
Experimental: as §1, §2

Row | SMILES | IC50 (Z138 cells) [µM] | IC50 (MS751 cells) [µM] | IC50 (3T3 cells) [µM]
1 | Nc1ccc(/C=C/C(=O)NCc2cc3cc(-c4ccc(C(=O)N5CC6(C5)CC(F)(F)C6)cn4)cc(C(F)(F)F)c3s2)cn1 [compound 515, (E)-3-(6-aminopyridin-3-yl)-N-((5-(5-(6,6-difluoro-2-azaspiro[3.3]heptane-2-carbonyl)pyridin-2-yl)-7-(trifluoromethyl)benzo[b]thiophen-2-yl)methyl)acrylamide] | < 1 | < 1 | > 10
2 | Nc1ccc(/C=C/C(=O)NCc2cc3cc(-c4ccc(C(=O)N5CCC(F)(F)C5)cn4)cc(C(F)(F)F)c3s2)cn1 [compound 510, (E)-3-(6-aminopyridin-3-yl)-N-((5-(5-(3,3-difluoropyrrolidine-1-carbonyl)pyridin-2-yl)-7-(trifluoromethyl)benzo[b]thiophen-2-yl)methyl)acrylamide] | 1 to 5 | 1 to 5 | > 10
3 | Cn1c(CNC(=O)/C=C/c2ccc(N)nc2)cc2cc(-c3ccc(C(=O)N4CCC(F)(F)CC4)cn3)cc(C(F)(F)F)c21 [compound 502, (E)-3-(6-aminopyridin-3-yl)-N-((5-(5-(4,4-difluoropiperidine-1-carbonyl)pyridin-2-yl)-1-methyl-7-(trifluoromethyl)-1H-indol-2-yl)methyl)acrylamide] | > 10 | > 10 | > 10
4 | Nc1ccc(/C=C/C(=O)NCc2cc3cc(-c4ccc(C(=O)N5CC6(COC6)C5)cc4)cc(C(F)(F)F)c3s2)cn1 [compound 519, (E)-N-((5-(4-(2-oxa-6-azaspiro[3.3]heptane-6-carbonyl)phenyl)-7-(trifluoromethyl)benzo[b]thiophen-2-yl)methyl)-3-(6-aminopyridin-3-yl)acrylamide] | < 1 | < 1 | > 10
5 | Nc1ccc(/C=C/C(=O)NCc2cc3cc(-c4ccc(C(=O)N5CC[C@H](F)C5)cn4)cc(C(F)(F)F)c3s2)cn1 [compound 513, (S,E)-3-(6-aminopyridin-3-yl)-N-((5-(5-(3-fluoropyrrolidine-1-carbonyl)pyridin-2-yl)-7-(trifluoromethyl)benzo[b]thiophen-2-yl)methyl)acrylamide] | 1 to 5 | 1 to 5 | 5 to 10
6 | Nc1ccc(/C=C/C(=O)NCc2cc3cc(-c4ccc(C(=O)N5CCC(F)CC5)cc4)cc(C(F)(F)F)c3s2)cn1 [compound 529, (E)-3-(6-aminopyridin-3-yl)-N-((5-(4-(4-fluoropiperidine-1-carbonyl)phenyl)-7-(trifluoromethyl)benzo[b]thiophen-2-yl)methyl)acrylamide] | > 10 | > 10 | > 10
7 | Nc1ccc(/C=C/C(=O)NCc2cc3cc(-c4ccc(C(=O)N5CCC(F)CC5)cn4)cc(C(F)(F)F)c3s2)cn1 [compound 517, (E)-3-(6-aminopyridin-3-yl)-N-((5-(5-(4-fluoropiperidine-1-carbonyl)pyridin-2-yl)-7-(trifluoromethyl)benzo[b]thiophen-2-yl)methyl)acrylamide] | 1 to 5 | 1 to 5 | > 10
8 | Nc1ccc(/C=C/C(=O)NCc2cc3cc(-c4ccc(C(=O)N5CCC(O)(C(F)(F)F)CC5)cn4)cc(C(F)(F)F)c3s2)cn1 [compound 505, (E)-3-(6-aminopyridin-3-yl)-N-((5-(5-(4-hydroxy-4-(trifluoromethyl)piperidine-1-carbonyl)pyridin-2-yl)-7-(trifluoromethyl)benzo[b]thiophen-2-yl)methyl)acrylamide] | 1 to 5 | 1 to 5 | > 10
9 | Nc1ccc(/C=C/C(=O)NCc2cc3cc(-c4ccc(C(=O)N5CC(F)(F)C5)cn4)cc(C(F)(F)F)c3s2)cn1 [compound 512, (E)-3-(6-aminopyridin-3-yl)-N-((5-(5-(3,3-difluoroazetidine-1-carbonyl)pyridin-2-yl)-7-(trifluoromethyl)benzo[b]thiophen-2-yl)methyl)acrylamide] | < 1 | 1 to 5 | 5 to 10
10 | Nc1ccc(/C=C/C(=O)NCc2cc3cc(-c4ccc(C(=O)N5CCC(F)(F)CC5)cn4)cc(C(F)(F)F)c3[nH]2)cn1 [compound 501, (E)-3-(6-aminopyridin-3-yl)-N-((5-(5-(4,4-difluoropiperidine-1-carbonyl)pyridin-2-yl)-7-(trifluoromethyl)-1H-indol-2-yl)methyl)acrylamide] | > 10 | > 10 | > 10
11 | Nc1ccc(/C=C/C(=O)NCc2cc3cc(-c4ccc(C(=O)N5CCC(O)(C(F)(F)F)C5)cn4)cc(C(F)(F)F)c3s2)cn1 (stereo not drawn) [compound 509, (E)-3-(6-aminopyridin-3-yl)-N-((5-(5-(3-hydroxy-3-(trifluoromethyl)pyrrolidine-1-carbonyl)pyridin-2-yl)-7-(trifluoromethyl)benzo[b]thiophen-2-yl)methyl)acrylamide] | < 1 | 1 to 5 | > 10
